Where a name gives a salt, the structure may show the parent alone. Read-outs that look alike come from different tables or passages of the source.
Key:
NCI-H1299 cells = assay: MTT based cell viability assay on NCI-H1299 cells; conditions: Homo sapiens, read-out: IC50, growth inhibition of NCI-H1299 cells
Experimental: Determination of the cell growth inhibiting activity of 6-(2-chlorophenyl)-2-((4-(4-methylpiperazin-1-yl)phenyl)amino)-8,9-dihydroimidazo[1,2-a]pyrimido[5,4-e]pyrimidin-5(6H)-one and analogs on NCI-H1299 cells using a MTT based cell viability assay
(§1) The thawed NCI-H1299 cells were cultured and passaged to the third generation, and the growth state was good and the confluence was about 90%, which began to be used in the experiment. The NCI-H1299 cells were digested with trypsin, centrifuged at 800 rpm for 5 min, the supernatant was discarded, resuspended with fresh culture group, and counted. 1000 Cells are seeded to each well of a 96-well plate. The cells are incubated at 37° C. in a 5% CO2 cell culture incubator overnight. The tested sample (including the tested compound and the reference compound AZD1775) was diluted continuously to 8 concentrations (the last concentration was negative control of DMSO) with a 1:3 and 1:10 dilution in DMSO respectively: 10 μM, 3.3 μM, 1 μM, 0.33 μM, 0.1 μM, 0.033 μM, 0.01 μM, 0 μM (the final concentration of DMSO was 1‰). 5 μL of each concentration was added to 120 μL of culture medium (25 times diluted), and the mixture was shaken well. The overnight cells were taken and the culture medium was removed, 195 μL of fresh culture medium was added to each well, and 5 μL of diluted culture medium containing the corresponding concentration of the tested sample was added respectively, and the culture plate was then placed in the 5% CO2 cell culture incubator at 37° C. for 3 d. After removing the original solution and adding 100 μL of fresh serum-free DMEM culture medium containing MTT (0.5 mg/mL) per well, the culture was continued. The original solution was removed after 4 hrs and 100 μl DMSO was added to each well. The 96-well cell culture plates were shaken away from light for 10 min and readed in a multifunctional reader at 552/630/690 nm to give absorption values (OD values). The data were analyzed using a commercial graphic software (Graph Pad Prism 5.0) and the inhibitory activity of the compound on cell proliferation was plotted in terms of cell survival and compound concentration. The IC50 values were fitted by the S-shaped dose-response curve equation as follows: Y=100/(1+10^(Log C−Log IC50)), where C was the concentration of testing compounds.

LoVo cells = assay: MTT based cell viability assay on LoVo cells; conditions: Homo sapiens, LoVo, 72 h, 3 d, read-out: IC50, growth inhibition of LoVo cells
Experimental: Determination of the cell growth inhibiting activity of 6-(2-chlorophenyl)-2-((4-(4-methylpiperazin-1-yl)phenyl)amino)-8,9-dihydroimidazo[1,2-a]pyrimido[5,4-e]pyrimidin-5(6H)-one and analogs on LoVo cells using a MTT based cell viability assay
as §1, with “LoVo” for “NCI-H1299”, “medium,” for “group,”, “6000” for “1000”, “1%).” for “1‰).”, “C-Log” for “C−Log”

Wee1 (h) = Wee1 (h) (Homo sapiens, UniProt P30291); assay: Wee1 kinase (h) detection method, [γ-33P]-ATP filter assay; type: biochemical
Experimental: Determination of the inhibitory effect of 6-(2-chlorophenyl)-2-((4-(4-methylpiperazin-1-yl)phenyl)amino)-8,9-dihydroimidazo[1,2-a]pyrimido[5,4-e]pyrimidin-5(6H)-one and Analogs on the Enzyme Activity of Wee1 Kinase by Using the Wee1 Kinase (h) Detection Method
Then the stock solution of all compounds under test with 50× concentration in 100% DMSO was added to make the final concentration of 10/1/0.1/0.01 μM, and then mixed the mixture well. The reaction is initiated by the addition of the Mg/ATP mix. After incubation for 40 minutes at room temperature, the reaction is stopped by the addition of phosphoric acid to a concentration of 0.5%. […] Each compound sample is duplicated in duplicate. The negative control was lack of all the components of Wee1 enzyme, and the positive was addition of 30% phosphoric acid to terminate the reaction. The Wee1 inhibitor AZD1775 was detected at 10 μM at the same experiment condition.

Chain of Wee1 (h) (P30291 whole entry): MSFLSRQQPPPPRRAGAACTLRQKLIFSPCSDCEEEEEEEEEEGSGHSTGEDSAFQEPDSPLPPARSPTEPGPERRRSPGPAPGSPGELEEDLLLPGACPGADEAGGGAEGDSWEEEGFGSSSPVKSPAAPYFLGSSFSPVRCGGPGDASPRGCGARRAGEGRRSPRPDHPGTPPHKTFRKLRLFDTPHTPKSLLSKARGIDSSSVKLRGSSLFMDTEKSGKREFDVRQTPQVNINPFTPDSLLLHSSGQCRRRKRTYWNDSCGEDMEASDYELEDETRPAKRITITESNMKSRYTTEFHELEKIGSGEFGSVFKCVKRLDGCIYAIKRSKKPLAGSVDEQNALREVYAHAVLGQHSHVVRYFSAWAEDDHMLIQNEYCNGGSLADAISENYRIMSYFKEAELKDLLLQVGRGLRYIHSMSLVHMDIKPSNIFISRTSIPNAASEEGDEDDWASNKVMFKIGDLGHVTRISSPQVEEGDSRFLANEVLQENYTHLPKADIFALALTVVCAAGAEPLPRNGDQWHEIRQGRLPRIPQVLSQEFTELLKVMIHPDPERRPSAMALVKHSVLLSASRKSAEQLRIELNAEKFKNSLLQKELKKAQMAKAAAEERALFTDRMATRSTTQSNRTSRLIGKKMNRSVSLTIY

SMILES | IC50 (NCI-H1299 cells; NCI-H1299 cells) | IC50 (LoVo cells) | Inh. (%) of Wee1 kinase enzyme activity (Wee1 (h); C 10 μm compound) | IC50 (NCI-H1299 cells; NCI-H1299, NCI-H1299 cells) | Inh. (%) of Wee1 kinase enzyme activity (Wee1 (h); C 0.01 μm compound) | Inh. (%) of Wee1 kinase enzyme activity (Wee1 (h); C 0.1 μm compound) | Inh. (%) of Wee1 kinase enzyme activity (Wee1 (h); C 1 μm compound) | inhibition at 0.01 µM (Wee1 (h); at 0.01 μM, read-out: inhibitory rate on Wee1 enzyme activity)
CN1CCN(c2ccc(Nc3cc4c(cn3)C(=O)N(c3ccccc3Cl)C3=NCCN34)cc2)CC1 [Example 3, 4-(2-Chlorophenyl)-8-((4-(4-methylpiperazin-1-yl)phenyl)amino)-2,4-dihydroimidazo[1,2-a]pyrido[3,4-e]pyrimidin-5(1H)-one] | > 10000 nM | > 100000 nM | 56% |  |  |  |  | 
CN1CCN(c2ccc(Nc3ncc4c(n3)N3CCN=C3N(c3c(Cl)cccc3Cl)C4=O)cc2)CC1 [Example 4, 6-(2,6-Dichlorophenyl)-2-((4-(4-methylpiperazin-1-yl)phenyl)amino)-8,9-dihydroimidazo[1,2-a]pyrimido[5,4-e]pyrimidin-5(6H)-one] |  | 169 nM |  | 204 nM | 55% | 93% | 97% | 51%
Cc1cccc(Cl)c1N1C(=O)c2cnc(Nc3ccc(N4CCN(C)CC4)cc3)nc2N2CCN=C21 [Example 5, 6-(2-Chloro-6-methylphenyl)-2-((4-(4-methylpiperazin-1-yl)phenyl)amino)-8,9-dihydroimidazo[1,2-a]pyrimido[5,4-e]pyrimidin-5(6H)-one] | 941 nM | 431 nM |  |  |  |  | 88% | 
CC(C)N1CCN(c2ccc(Nc3ncc4c(n3)N3CCN=C3N(c3c(F)cccc3Cl)C4=O)cc2)CC1 [Example 6, 6-(2-Chloro-6-fluorophenyl)-2-((4-(4-isopropylpiperazin-1-yl)phenyl)amino)-8,9-dihydroimidazo[1,2-a]pyrimido[5,4-e]pyrimidin-5(6H)-one] | 461 nM | 339 nM |  |  | 33% | 89% | 98% | 
CC(=O)N1CCN(c2ccc(Nc3ncc4c(n3)N3CCN=C3N(c3c(F)cccc3Cl)C4=O)cc2)CC1 [Example 7, 2-((4-(4-Acetylpiperazin-1-yl)phenyl)amino)-6-(2-chloro-6-fluorophenyl)-8,9-dihydroimidazo[1,2-a]pyrimido[5,4-e]pyrimidin-5(6H)-one] | 1260 nM | 1430 nM |  |  | 31% | 84% | 96% | 
CN1CCc2ccc(Nc3ncc4c(n3)N3CCN=C3N(c3c(F)cccc3Cl)C4=O)cc2C1 [Example 8, 6-(2-Chloro-6-fluorophenyl)-2-((2-methyl-1,2,3,4-tetrahydroisoquinolin-7-yl)amino)-8,9-dihydroimidazo[1,2-a]pyrimido[5,4-e]pyrimidin-5(6H)-one] | 159 nM | 202 nM |  |  | 60% | 93% | 99% | 
CN1Cc2cc(Nc3ncc4c(n3)N3CCN=C3N(c3c(F)cccc3Cl)C4=O)ccc2C(C)(C)C1 [Example 9, 6-(2-Chloro-6-fluorophenyl)-2-((2,4,4-trimethyl-1,2,3,4-tetrahydroisoquinolin-7-yl)amino)-8,9-dihydroimidazo[1,2-a]pyrimido[5,4-e]pyrimidin-5(6H)-one] | 183 nM | 126 nM |  |  | 28% | 79% | 100% | 
CN1Cc2cc(Nc3ncc4c(n3)N3CCN=C3N(c3c(F)cccc3Cl)C4=O)ccc2C2(CC2)C1 [Example 10, 6-(2-Chloro-6-fluorophenyl)-2-((2′-methyl-2′,3′-dihydro-1′H-spiro[cyclopropane-1,4′-isoquinolin]-7′-yl)amino)-8,9-dihydroimidazo[1,2-a]pyrimido[5,4-e]pyrimidin-5(6H)-one] | 172 nM | 88.7 nM |  |  | 46% | 93% | 98% | 
Cc1cc(Nc2ncc3c(n2)N2CCN=C2N(c2c(Cl)cccc2Cl)C3=O)ccc1N1CCC(N(C)C)CC1 [Example 141, 6-(2,6-Dichlorophenyl)-2-((4-(4-(dimethylamino)piperidin-1-yl)-3-methylphenyl)amino)-8,9-dihydroimidazo[1,2-a]pyrimido[5,4-e]pyrimidin-5(6H)-one] | 42.9 nM | 37.3 nM |  |  |  |  |  | 
COc1cc(Nc2ncc3c(n2)N2CCN=C2N(c2c(Cl)cccc2Cl)C3=O)cc(C)c1N1CCN(C)CC1 [Example 159, 6-(2,6-Dichlorophenyl)-2-((3-methoxy-5-methyl-4-(4-methylpiperazin-1-yl)phenyl)amino)-8,9-dihydroimidazo[1,2-a]pyrimido[5,4-e]pyrimidin-5(6H)-one] | 56.8 nM | 52.2 nM |  |  |  |  |  | 
Cc1cc(Nc2ncc3c(n2)N2CCN=C2N(c2c(C)cccc2Cl)C3=O)cc(F)c1N1CCC(N(C)C)CC1 [Example 170, 6-(2-Chloro-6-methylphenyl)-2-((4-(4-(dimethylamino)piperidin-1-yl)-3-fluoro-5-methylphenyl)amino)-8,9-dihydroimidazo[1,2-a]pyrimido[5,4-e]pyrimidin-5(6H)-one] | 89.9 nM | 76.9 nM |  |  |  |  |  | 
Cc1cc(Nc2ncc3c(n2)N2CCN=C2N(c2c(Cl)cccc2Cl)C3=O)ccc1N1CCNCC1 [Example 177, 6-(2,6-Dichlorophenyl)-2-((3-methyl-4-(piperazin-1-yl)phenyl)amino)-8,9-dihydroimidazo[1,2-a]pyrimido[5,4-e]pyrimidin-5(6H)-one] | 83.1 nM | 59.5 nM |  |  |  |  |  | 
CNCc1cc(Nc2ncc3c(n2)N2CCN=C2N(c2c(Cl)cccc2Cl)C3=O)ccc1N1CCOCC1 [Example 184, 6-(2,6-Dichlorophenyl)-2-((3-((methylamino)methyl)-4-morpholinophenyl)amino)-8,9-dihydroimidazo[1,2-a]pyrimido[5,4-e]pyrimidin-5(6H)-one] | 879 nM | 1490 nM |  |  |  |  |  | 
CN1CCN(c2ccc(Nc3ncc4c(n3)N3CCN=C3N(c3c(Cl)cccc3Cl)C4=O)cc2Cl)CC1 [Example 186, 6-(2,6-Dichlorophenyl)-2-((3-chloro-4-(4-methylpiperazin-1-yl)phenyl)amino)-8,9-dihydroimidazo[1,2-a]pyrimido[5,4-e]pyrimidin-5(6H)-one dihydrochloride] | 154 nM | 42.4 nM |  |  |  |  |  | 

Reference: patent US11345711B2, “8,9-dihydroimidazo[1,2-a]pyrimido[5,4-e]pyrimidin-5(6H)-ones” (IMPACT THERAPEUTICS (SHANGHAI), INC, priority 2016, dated 2022)
